Data reported in patent US20080306131A1, “Progesterone receptor modulator and uses thereof” (Wyeth, priority 2007, published 2008).
Where two headings read alike, the source gives them in different places.

Target: T1, progesterone receptors (PR) (Homo sapiens, UniProt P06401)
T1 sequence (P06401 1-933): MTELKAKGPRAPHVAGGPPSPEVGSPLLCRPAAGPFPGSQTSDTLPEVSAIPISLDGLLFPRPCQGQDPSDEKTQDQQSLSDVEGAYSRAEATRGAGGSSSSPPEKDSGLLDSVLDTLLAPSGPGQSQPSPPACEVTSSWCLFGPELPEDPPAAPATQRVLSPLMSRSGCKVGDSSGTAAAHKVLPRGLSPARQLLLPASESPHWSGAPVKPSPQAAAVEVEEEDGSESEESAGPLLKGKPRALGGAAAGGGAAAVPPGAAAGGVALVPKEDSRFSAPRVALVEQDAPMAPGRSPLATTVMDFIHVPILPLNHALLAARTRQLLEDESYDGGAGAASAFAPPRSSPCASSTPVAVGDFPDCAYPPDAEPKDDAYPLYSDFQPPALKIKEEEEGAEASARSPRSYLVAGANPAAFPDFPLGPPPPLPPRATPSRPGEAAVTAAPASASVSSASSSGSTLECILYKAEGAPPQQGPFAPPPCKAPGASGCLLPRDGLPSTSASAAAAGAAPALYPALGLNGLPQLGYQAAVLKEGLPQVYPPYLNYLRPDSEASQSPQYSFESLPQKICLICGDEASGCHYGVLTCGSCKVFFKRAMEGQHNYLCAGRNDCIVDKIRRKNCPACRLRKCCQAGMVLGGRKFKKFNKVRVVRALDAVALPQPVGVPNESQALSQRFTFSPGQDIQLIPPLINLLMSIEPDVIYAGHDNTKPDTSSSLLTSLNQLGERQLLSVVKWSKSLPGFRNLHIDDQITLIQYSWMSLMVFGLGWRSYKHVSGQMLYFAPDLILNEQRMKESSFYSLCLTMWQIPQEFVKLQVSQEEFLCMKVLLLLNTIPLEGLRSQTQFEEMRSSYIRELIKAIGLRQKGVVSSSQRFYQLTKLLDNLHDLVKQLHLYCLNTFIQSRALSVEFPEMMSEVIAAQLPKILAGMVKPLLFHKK
Test: PRE luciferase reporter assay and Quantigene branched DNA assay (TF, PPL) for progestin activity in T47D cells
Assay type: cell-based
Details: read-out: efficacies (percentage of the maximum P4 response)
Protocol: Progestin activity was measured using a common luciferase reporter system in cells expressing endogenous progesterone receptors (PR). T47D breast cancer cells were plated at 50,000 cells/well in 96 well plates in DMEM/F-12 supplemented with penicillin/streptomycin, Glutamax and 5% FBS (Gibco). Cells were infected with a 1:1000 dilution of an adenovirus vector expressing luciferase under the control of three copies of a consensus progesterone receptor regulatory element (PRE) located in the promoter region. Following a two-hour post-infection recovery, cells were treated for 20 hours with progesterone (P4) or test compounds. Luciferase reporter activity was quantified using the Luciferase Assay System (Promega) and a Victor2 luminometer (Perkin Elmer).
T47D cells were plated as in the PRE assay and treated with compound for 15 hours. Expression of tissue factor (TF), a PR-β isoform regulated gene, or periplakin (PPL), a PR-A regulated gene, was measured by the Quantigene branched DNA assay (Genospectra) using the Victor2 luminometer following the manufacturer's recommended protocol.
EC50 values were determined using the dose response nonlinear fit model from the SAS statistics package (SAS Institute Inc). Efficacies were calculated as a percentage of the maximum P4 response.

| Structure (SMILES) | Emax (T47D) [%] | Emax (T47D breast cancer cells, percentage of maximum progesterone (P4) response, the text does not say which assay (PRE luciferase, TF, PPL) each value comes from) [%] |
| --- | --- | --- |
| CC1(C)C(=O)C=CC2(C)C3(C)c4[nH]c5ccccc5c4CC3CCC12O (centres unmarked) [4a-hydroxy-4,4,12b,12c-tetramethyl-4a,5,6,6a,7,12,12b,12c-octahydrobenzo[6,7]indeno[1,2-b]indol-3(4H)-one] | < 1 | – |
| CO[C@H]1[C@H](O)[C@@H](O)[C@@H](Oc2ccc3c4c([nH]c3c2)[C@]2(C)[C@H](CC[C@@H]3C(C)(C)C(=O)C=C[C@]32C)C4)O[C@@H]1CO [(4aS,6aR,12bR,12cR)-4,4,12b,12c-tetramethyl-3-oxo-3,4,4a,5,6,6a,7,12,12b,12c-decahydrobenzo[6,7]indeno[1,2-b]indol-10-yl 4-O-methyl-α-D-glucopyranoside] | – | < 1 |
